The source of these data is patent publication US20140065241A1, “USES OF (-)-PERHEXILINE” (Adelaide Research & Innovation Pty Ltd, priority 2012, published 2014).

Structures are written as SMILES.

Data set [1] relates to rat isoprenaline model of heart failure. In words: Plasma troponin T in rat isoprenaline model of heart failure. It counts as in vivo. The settings on record: DA rats; 2 weeks pre-treatment 200 mg/kg/day; isoprenaline 50 mg/kg i.p.; plasma 3 hr after. The method, then: The effect of racemic perhexyline, (+)-perhexyline and (−)-perhexyline on myocardial damage in a rat isoprenaline model of heart failure, using Troponin T as an indirect measure of myocardial damage was investigated. The use of a rat isoprenaline model of heart failure is as described in Teerlink, J R et al. (1994) “Progressive ventricular remodeling in response to diffuse isoproterenol-induced myocardial necrosis in rats” Circ Res, 75: 105-13.
DA rats were treated for 2 weeks with vehicle or 200 mg/kg/day of racemic, (+)- or (−)-perhexyline maleate, on day 15 myocardial necrosis was induced by i.p. injection of 50 mg/kg isoprenaline, with a second group of controls receiving an i.p. injection of saline (n=5). Cardiac troponin T levels were measured in plasma collected 3 hr following treatment by venipuncture of the tail vein.

The conditions of data set [2]: clinical use of racemic drug; cited from earlier work.
Data set [3] concerns rat isoprenaline model. In words: Histological assessment of isoprenaline-induced myocardial injury. The format is in vivo. The following applies: DA rats; 2 weeks pre-treatment 200 mg/kg/day; isoprenaline 50 mg/kg. The protocol:
DA rats were treated for 2 weeks with vehicle or 200 mg/kg/day of racemic, (+)- or (−)-perhexyline maleate, on day 15 myocardial necrosis was induced by i.p. injection of 50 mg/kg isoprenaline, with a second group of controls receiving an i.p. injection of saline (n=5). Cardiac troponin T levels were measured in plasma collected 3 hr following treatment by venipuncture of the tail vein. […] The severity and extent of myocardial injury were assessed by a pathologist who was blinded to the treatment, and classified as: 0—no change; 1—mild (single mild focus of myocyte damage or multiple small foci with mild inflammatory cell infiltrate); 2—moderate (multiple larger foci of myocyte damage with moderate inflammatory cell infiltrate) and 3—severe (multiple larger foci of myocyte damage with severe inflammatory cell infiltrate or broad zone of necrosis with extensive inflammation). Results were analysed by dividing animals into two response groups 0-1: no or mild >1: moderate to severe.

Data set [4] deals with Dark Agouti (DA) rats. In words: Histological (electron microscopy) assessment of hepatic lipid and glycogen content after 8 weeks of dosing. It counts as in vivo, rat. The settings on record: for hepatic glycogen content / hepatic lipid content: 200 mg/kg daily for 8 weeks, vs vehicle, 200 mg/kg. The method, then: Adult female Dark Agouti (DA) rats (n=4 in each group) were administered 200 mg/kg daily of vehicle, racemic-, (+) or (−)-perhexyline maleate for a period of 2 months. The perhexyline maleate compound was administered mixed with peanut paste and coated onto standard rat chow. On day 56 of dosing, animals were anesthetized and blood was collected via a cardiac puncture in order to determine the concentrations of perhexyline enantiomers. Animals were then euthanized and hepatic, cardiac and neuronal tissues were harvested in order to determine perhexyline enantiomer and metabolite tissue concentrations and morphological changes. Tissues were cut in half and either immediately snap frozen in liquid nitrogen or placed into fixative solution for electron microscopy analysis. Tissue was dissected into cubes of approximately 0.5 mm in each dimension and was fixed for one hour in electron microscopy (EM) fixative (4% formaldehyde and 1.5% glutaraldehyde in sodium cacodylate buffer, pH 7.2). The fixed tissue was post-fixed in 2% osmium tetroxide in sodium cacodylate buffer, en bloc stained with 2% uranyl acetate and dehydrated through 70%, 90% and 100% ethanol. Then, the tissue was processed through 1,2-epoxypropane, a 50/50 mixture of 1,2-epoxypropane and Procure 812 resin (Electron Microscopy Sciences, Fort Washington, USA) and two changes of 100% resin. Tissue and resin were transferred to Beem capsules and placed in an oven overnight at 90° C. Survey sections of tissue blocks were cut with glass knives and stained with Toluidine Blue. Thin sections were cut at approximately 100 nm thickness on a Porter-Blum ultramicrotome (Sorvall, Newtown, USA) using a diamond knife (Micro Star Technologies, Huntsville, USA). Thin sections were stained with Reynolds' lead citrate and examined in a Hitachi H-600 transmission electron microscope (Tokyo, Japan 1983). Glycogen and lipids were identified and total content was measured as a percentage of the field of view.

Data set [5] relates to Dark Agouti rats. In words: Peripheral neural function by von Frey filament testing (paw withdrawal threshold). The format is in vivo, rat. The settings on record: DA rats treated for 8 weeks, vs vehicle. The method, then: At 56 days, neuronal function was measured prior to euthanasia using von Frey filament testing. The thickness of each filament corresponds to a specific amount of pressure (in grams). Each animal was placed in a specifically designed plastic container, with the bottom replaced by mesh flooring. The animal was left for 10-15 minutes to settle into its new environment. In ascending order, von Frey filaments were applied from beneath the mesh flooring to the plantar surface of the paw until the filament buckled and was held there for a total of 10 seconds. A positive response was noted if the paw was withdrawn within the 10-second period. If a filament induced 6 positive responses, the grams corresponding to that filament were recorded as the paw withdrawal threshold.
To test the effect of each enantiomer on peripheral neural function, a Von Frey hairs model was used.

Data set [6] can be described thus: Perhexyline enantiomer concentrations in plasma, liver and heart. The format is in vivo, rat. The following applies: DA rats; for plasma concentration: pure enantiomer 200 mg/kg daily for 8 weeks. The protocol: Adult female Dark Agouti (DA) rats (n=4 in each group) were administered 200 mg/kg daily of vehicle, racemic-, (+) or (−)-perhexyline maleate for a period of 2 months. The perhexyline maleate compound was administered mixed with peanut paste and coated onto standard rat chow. On day 56 of dosing, animals were anesthetized and blood was collected via a cardiac puncture in order to determine the concentrations of perhexyline enantiomers. Animals were then euthanized and hepatic, cardiac and neuronal tissues were harvested in order to determine perhexyline enantiomer and metabolite tissue concentrations and morphological changes. Tissues were cut in half and either immediately snap frozen in liquid nitrogen or placed into fixative solution for electron microscopy analysis.
Plasma, liver and hear concentrations were measured in Dark Agouti rats treated for 8 weeks with 200 mg/kg/day of (+)-, (−)- or racemic-perhexyline (animals as described in Example 2) using the method of Davies et al., Journal of Chromatography B, 832 (2006) 114-120.
The data are shown in FIGS. 6A and 6B with concentrations adjusted to the equivalent of a 100 mg/kg enantiomeric dose.

Data set [7] has as its system TXNIP. In words: Myocardial TXNIP staining (immunohistochemistry) after isoprenaline. The format is in vivo, rat. The settings on record: DA rats; 2 weeks pre-treatment 200 mg/kg/day; isoprenaline 50 mg/kg. The source says:
CONT; *=P<0.05 c.f. ISO; ̂=P=0.05 c.f. ISO. […] T×NIP is a regulatory protein which couples substrate utilization and redox state. Increased expression of T×NIP is associated with increased oxidative stress, decreased insulin secretion, decreased glucose uptake and suppression of PPARα (a major nuclear transcription factor regulating lipid metabolism). Thus, both (−)-perhexyline and (+)-perhexyline may also exert cardioprotection via inhibition of T×NIP.

The target in data set [8] is T1, human neutrophil NOX2 (Homo sapiens, UniProt P04839).
T1 construct: Using neutrophils from 11 healthy young volunteers; endogenous in cells; host or cells: human neutrophils from healthy volunteers
T1 sequence (P04839 2-570 limits assumed): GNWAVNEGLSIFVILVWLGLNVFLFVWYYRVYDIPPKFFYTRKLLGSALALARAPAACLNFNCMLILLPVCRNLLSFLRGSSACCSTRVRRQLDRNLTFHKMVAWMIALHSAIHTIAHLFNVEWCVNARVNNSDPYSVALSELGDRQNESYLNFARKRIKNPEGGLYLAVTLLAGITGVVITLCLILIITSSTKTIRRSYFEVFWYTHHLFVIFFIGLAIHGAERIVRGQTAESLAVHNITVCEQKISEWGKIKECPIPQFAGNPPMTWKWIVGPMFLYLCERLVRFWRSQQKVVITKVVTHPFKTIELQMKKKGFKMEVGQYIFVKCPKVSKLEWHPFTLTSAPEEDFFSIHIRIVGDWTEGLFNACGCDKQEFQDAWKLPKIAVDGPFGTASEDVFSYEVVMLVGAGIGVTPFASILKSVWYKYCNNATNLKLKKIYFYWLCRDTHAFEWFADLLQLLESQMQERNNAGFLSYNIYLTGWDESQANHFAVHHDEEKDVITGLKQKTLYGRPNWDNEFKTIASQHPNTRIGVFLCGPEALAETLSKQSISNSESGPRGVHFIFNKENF
T1 sequence (P13498 2-195 partner limits assumed): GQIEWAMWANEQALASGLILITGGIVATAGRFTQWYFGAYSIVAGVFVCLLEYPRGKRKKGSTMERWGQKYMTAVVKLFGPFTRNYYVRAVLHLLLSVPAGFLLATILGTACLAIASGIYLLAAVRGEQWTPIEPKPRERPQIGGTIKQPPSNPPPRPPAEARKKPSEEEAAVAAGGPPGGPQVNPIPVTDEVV
In words: Inhibition of ex vivo superoxide formation by NOX2 in human neutrophils. The format is cell-based. The following applies: neutrophils from 11 healthy young volunteers. The text has this: As an index of anti-inflammatory and nitric oxide-sparing potential, the relative potency of the enantiomers as inhibitors of ex vivo superoxide formation by NOX2 was investigated in human neutrophils.
Whilst this enantioselectivity is consistent with different therapeutic indices for the enantiomers, it can be seen that both still contribute to perhexyline's anti-inflammatory effects.

The test system of data set [9] is pyruvate dehydrogenase (PDH). In words: Total and phosphorylated pyruvate dehydrogenase in heart tissue by Western blots. The format is in vivo. The following applies: DA rat heart; 2 weeks 200 mg/kg/day; isoprenaline 50 mg/kg. The method, then:
DA rats were treated for 2 weeks with vehicle or 200 mg/kg/day of racemic, (+)- or (−)-perhexyline maleate, on day 15 myocardial necrosis was induced by i.p. injection of 50 mg/kg isoprenaline (HCl salt), with a second group of controls receiving an i.p. injection of saline (n=5-8). Total and phosphorylated pyruvate dehydrogenase in heart tissue was measured by Western blots.
Background: In western blotting, separated proteins are transferred to a membrane and probed.

The mark [10] stands for this setting: 8 weeks 200 mg/kg/day, dose-adjusted.

Take `C1CCC(C(CC2CCCCN2)C2CCCCC2)CC1` (racemic) [racemic perhexyline, 2-(2,2-dicyclohexylethyl) piperidine]: the “effect on isoprenaline-induced rise in plasma troponin T” value (shortened to “effect on isoprenaline-induced rise”) in [1] was “not affected”. Besides, in [2], the “plasma concentration at which severe adverse effects (hepatotoxicity, peripheral neuropathy) are typically seen” value is on record as “greater than 0.6 mg/L” and the “recipients with adverse effects” value is “more than 60%”.
With `C1CCC(C(CC2CCCCN2)C2CCCCC2)CC1` (single isomer, unassigned; (+)) [(+)-perhexyline, (+)-enantiomer of perhexyline], the “isoprenaline-induced myocardial damage (histological score)” value in [3] was “only partially attenuated”. Also, in data set [4], the hepatic glycogen content result is “appeared to decrease” and the hepatic lipid content result is listed as “significantly increased”. In addition, the hepatic steatosis entry in [4] (8 weeks, plasma concentrations similar to those causing hepatotoxicity in humans) is “causes hepatic steatosis”. The “neural sensory function (Von Frey hairs)” value in data set [5] was “significant decline”. Moreover, the “effect on isoprenaline-induced rise” value in data set [1] is listed as “not affected”. Also, the “distribution into liver, pure enantiomer compared to the racemic formulation” value in [6] (setting [10]) is “significantly increased”. Further, the plasma concentration in [6] lay in the range of 520 to 800 ng/mL. Further, the “isoprenaline-induced increase in myocardial TXNIP staining” value in data set [7] is “attenuated”. In addition, in [8], the concentration giving a half-maximal response (EC50) (in general, the midpoint of the concentration-response curve) amounted to 1.8 µM.
With `C1CCC(C(CC2CCCCN2)C2CCCCC2)CC1` (single isomer, unassigned; (-)) [(−)-perhexyline, (−)-enantiomer of perhexyline], the “isoprenaline-induced myocardial damage (histological score)” value in data set [3] is reported as “attenuated”. Moreover, in data set [4], the hepatic glycogen content result is “significantly increased” and the hepatic lipid content result is listed as “no effect”. Also, in [5], the “neural sensory function (Von Frey hairs)” value is “did not”. Also, in [9], the “PDH deactivation (measured as phosphorylated PDH)” value was “extremely potent inhibitor”, the “inhibition of PDH deactivation compared with (+)-perhexyline” value was “more potent” and the “total PDH expression” value is given as “did not affect”. Besides, the “effect on isoprenaline-induced rise” value in data set [1] is on record as “exacerbated”. Further, the “tissue distribution, pure enantiomer vs as part of the racemic formulation” value in [6] (setting [10]) is “similar”. This molecule showed a plasma concentration in data set [6] of 220 to 390 ng/mL. Also, the “isoprenaline-induced increase in myocardial TXNIP staining” value in data set [7] is “attenuated”. Also, the concentration for a half-maximal effect (EC50) in data set [8] amounted to 1.3 µM.
